# From patent publication US20030108619A1, “Bone-strengthening agents, food compositions for strengthening bone and feed compositions for strengthening bone” (priority 2000, published 2003)
# What was measured:
# femora [1] = assay: Dry weight of femora, Example 1; type: in vivo, rat
# Description: (§1) 5-weeks old female Wistar rats (Convention) obtained from Japan SLC, Inc. (Hamamatsu, Japan) were used.
# (§2) 2. CPP-administered group: Basic feed+CPP (40 mg/100 g body weight)
# (§3) 3. Genistein-administered group: Basic feed+genistein (50 μg/100 g body weight)
# (§4) 4. CPP+genistein-administered group: Basic feed+CPP (40 mg/100 g body weight)+genistein (50 μg/100 g body weight)
# As the CPP, a solution of CPP-III (casein phosphopeptide content 85%) manufactured by Meiji Seika Kaisha, Ltd., dissolved in distilled water was used. As the genistein, a reagent (manufactured by Sigma Chemical Company in U.S. A.) extracted from soybean and highly purified, dissolved in a 10% ethanol solution was used. […]
# (§5) After washing the extracted femora in a cold 0.25 M sucrose solution to remove a soft tissue and drying it in a drier at 100° C. for about 16 hours, the dry weight of the femora was measured. After the measurement, the extracted femora were divided into diaphysis (cortical bone) and metaphysis (trabecular bone) and the amount of calcium in each of them was measured. […] The solutions were used as sample solutions and the amount of calcium therein was determined by using an atomic absorption spectrophotometer. […]
# (§6) Significant tests of respective measured values were performed by using Student's t-test. […]
# femora [2] = assay: Amount of calcium in femora, Example 1; type: in vivo, rat; settings: 5-weeks old rats
# Description: as §1, §2, §3, §4
# (§7) As the CPP, a solution of CPP-III (casein phosphopeptide content 85%) manufactured by Meiji Seika Kaisha, Ltd., dissolved in distilled water was used. As the genistein, a reagent (manufactured by Sigma Chemical Company in U.S. A.) extracted from soybean and highly purified, dissolved in a 10% ethanol solution was used.
# (§8) Animal groups each consisting of five animals were fed with the basic feed under constant temperature and constant humidity conditions of room temperature 25° C., and 55% humidity. In addition, the control group was administered with 1 ml/100 g body weight of purified distilled water and the other groups were each orally administered with CPP and/or genistein in the above-mentioned amounts once a day for 14 days by using a stomach tube. After 24 hours from the last administration, the rats were sacrificed and the femora were extracted. The extracted femora were used for the measurement of bone components as shown below.
# (§9) After washing the extracted femora in a cold 0.25 M sucrose solution to remove a soft tissue and drying it in a drier at 100° C. for about 16 hours, the dry weight of the femora was measured. After the measurement, the extracted femora were divided into diaphysis (cortical bone) and metaphysis (trabecular bone) and the amount of calcium in each of them was measured. That is, the obtained diaphysial tissue and metaphysial tissue of the femora were each charged in a test tube, to which was added 3 ml of concentrated nitric acid to decompose them at 120° C. for 24 hours. The solutions were used as sample solutions and the amount of calcium therein was determined by using an atomic absorption spectrophotometer. The amounts of calcium were expressed in terms of mg per 1 g of the dry weight of the bone tissue.
# (§10) Significant tests of respective measured values were performed by using Student's t-test. Values with a risk factor of 5% or less were taken as significant.
# [3] = tested on: bone alkaline phosphatase; assay: Activity of femoral alkaline phosphatase, Example 1; type: in vivo, rat; settings: 5-weeks old rats
# Description: as §1, §2, §3, §4, §7, §8
# (§11) The diaphysial tissue and metaphysial tissue of the femora obtained as described above were each dipped in 3 ml of a cold 6.5 mM barbital buffer (pH 7.4) and cut into small pieces and homogenized by using a Potter-Elvehjem homogenizer followed by ultrasonic treatment for 60 seconds for crushing. Further, the homogenate was centrifuged for 5 minutes at 600×g and the supernatant fraction was used as a crude enzyme solution.
# (§12) The activity of bone alkaline phosphatase was measured in accordance with the method of Walter and Schutt (Bergmeyer H. U. (ed.). Methods of Enzymatic Analysis, Vol. 1-2, Academic Press, New York, pp. 856-860, 1974). The enzymatic reaction was initiated by adding 0.05 ml of the above-mentioned crude enzyme solution to 2 ml of 0.1M diethanolamine hydrochloride buffer (pH 9.8) containing disodium p-nitrophenyiphosphate as a substrate. The reaction was performed by incubation at 37° C. for 30 minutes. The reaction was terminated by adding 10 ml of 0.05N NaOH and the activity was expressed in terms of the amount (μmol) of free p-nitrophenol per 1 minute per the mass (mg) of the enzyme protein used. The concentration of the protein was measured in accordance with the method of Lowry et al. (J. Biol. Chem., 193: 265-273, 1951).
# as §10
# femora [4] = assay: Amount of DNA in femora, Example 1; type: in vivo, rat; settings: 5-weeks old rats
# Description: (§13) 5-weeks old female Wistar rats (Convention) obtained from Japan SLC, Inc. (Hamamatsu, Japan) were used. 2. CPP-administered group: Basic feed+CPP (40 mg/100 g body weight) 3. Genistein-administered group: Basic feed+genistein (50 μg/100 g body weight) 4. CPP+genistein-administered group: Basic feed+CPP (40 mg/100 g body weight)+genistein (50 μg/100 g body weight) As the CPP, a solution of CPP-III (casein phosphopeptide content 85%) manufactured by Meiji Seika Kaisha, Ltd., dissolved in distilled water was used. As the genistein, a reagent (manufactured by Sigma Chemical Company in U.S. A.) extracted from soybean and highly purified, dissolved in a 10% ethanol solution was used. Animal groups each consisting of five animals were fed with the basic feed under constant temperature and constant humidity conditions of room temperature 25° C., and 55% humidity. In addition, the control group was administered with 1 ml/100 g body weight of purified distilled water and the other groups were each orally administered with CPP and/or genistein in the above-mentioned amounts once a day for 14 days by using a stomach tube. After 24 hours from the last administration, the rats were sacrificed and the femora were extracted. The extracted femora were used for the measurement of bone components as shown below. The diaphysial tissue and metaphysial tissue of the femora thus obtained were each crushed in 4.0 ml of a cold 0.1 N NaOH solution after homogenization of the bone tissue, shaken at 4° C. for 24 hours and extracted. After the alkali extraction, centrifugation treatment was performed at 1,000×g for 5 minutes and the supernatant fraction was used as a sample for the measurement of DNA. The measurement of the amount of DNA was performed in accordance with the method of Ceriotti (J. Biol. Chem., 214: 39-77, 1955). To a test tube containing 2.0 ml of a sample were added 1.0 ml of concentrated hydrochloric acid and 1.0 ml of a 0.04% indole solution and the test tube was shut with an aluminum cap, followed by heating on a boiling water bath for 10 minutes and then quenched on ice to terminate the reaction. Extraction with 4.0 ml of chloroform for 3 to 4 minutes was repeated several times and the amount of DNA was measured on a spectrophotometer (490 nm). The amount of DNA was calculated per wet weight (g) of bone tissue. Significant tests of respective measured values were performed by using Student's t-test. Values with a risk factor of 5% or less were taken as significant.
# femora [5] = assay: Dry weight of femora, Example 2; type: in vivo, rat
# Description: as §2, §3, §4, §7
# Animal groups each consisting of five animals were fed with the basic feed under constant temperature and constant humidity conditions of room temperature 25° C., and 55% humidity. […]
# as §5, §6
# femora [6] = assay: Amount of calcium in femora, Example 2; type: in vivo, rat; settings: 50-weeks old rats
# Description: as §2, §3, §4, §7, §8, §9, §10
# 1) The materials and methods in Example 2 were the same as in Example 1 except that 50-weeks old normal female Wistar rats obtained from Japan SLC, Inc. (Hamamatsu, Japan) were used as test animals.
# [7] = tested on: bone alkaline phosphatase; assay: Activity of femoral alkaline phosphatase, Example 2; type: in vivo, rat; settings: 50-weeks old rats
# Description: as §2, §3, §4, §7, §8, §11, §12
# Significant tests of respective measured values were performed by using Student's t-test. Values with a risk factor of 5% or less were taken as significant. […]
# femora [8] = assay: Amount of DNA in femora, Example 2; type: in vivo, rat; settings: 50-weeks old rats
# Description: as §13, with “2.” for “5-weeks old female Wistar rats (Convention) obtained from Japan SLC, Inc. (Hamamatsu, Japan) were used. 2.”, “significant. 1) The materials and methods in Example 2 were the same as in Example 1 except that 50-weeks old normal female Wistar rats obtained from Japan SLC, Inc. (Hamamatsu, Japan) were used as test animals.” for “significant.”
# osteoclasts [9] = settings: Biol. Pharm. Bull., 22, 805-809, 1999; cited from earlier work
# osteoclasts [10] = settings: culture system using metaphysial tissue in the femora of old rats; Biochem. Pharmacol., 55: 71-76, 1998; cited from earlier work
# osteoblasts = settings: Res. Exp. Med. 197: 101-107, 1997; cited from earlier work
smiles,measurement,setting,value
"O=c1c(-c2ccc(O)cc2)coc2cc(O)cc(O)c12 [Genistein, genistein]",Dry weight of femora,"femora [1]; 5-weeks old female Wistar rats, oral once a day for 14 days, CPP 40 mg/100 g, genistein 50 μg/100 g body weight",230.4 ± 1.20 mg
same,Dry weight of femora as compared with that of the control group,"femora [1]; 5-weeks old rats, oral 14 days",1.12 times
same,Amount of calcium in the diaphysis as compared with that of the control group,femora [2]; diaphysis,1.12 times
same,Amount of calcium in the metaphysis as compared with that of the control group,femora [2]; metaphysis,1.07 times
same,"Bone calcium, Diaphysis","femora [2]; oral 14 days, diaphysis",225.1 ± 3.23 mg/g dry weight
same,"Bone calcium, Metaphysis","femora [2]; oral 14 days, metaphysis",204.1 ± 3.56 mg/g dry weight
same,Activity of femoral alkaline phosphatase in the diaphysis as compared with that of the control group,[3]; diaphysis,1.04 times
same,Activity of femoral alkaline phosphatase in the metaphysis as compared with that of the control group,[3]; metaphysis,1.04 times
same,"The activity of alkaline phosphatase, Diaphysis","[3]; oral 14 days, diaphysis",1.809 ± 0.014 μmol/min/mg protein
same,"The activity of alkaline phosphatase, Metaphysis","[3]; oral 14 days, metaphysis",1.853 ± 0.017 μmol/min/mg protein
same,Amount of DNA in the diaphysis as compared with that of the control group,femora [4]; diaphysis,1.06 times
same,Amount of DNA in the metaphysis as compared with that of the control group,femora [4]; metaphysis,1.09 times
same,"Amount of DNA, Diaphysis","femora [4]; oral 14 days, diaphysis",1.895 ± 0.013 mg/g wet weight of bone
same,"Amount of DNA, Metaphysis","femora [4]; oral 14 days, metaphysis",2.894 ± 0.034 mg/g wet weight of bone
same,Dry weight of femora,"femora [5]; 50-weeks old female Wistar rats, oral once a day for 14 days, CPP 40 mg/100 g, genistein 50 μg/100 g body weight",475.3 ± 8.35 mg
same,Dry weight of femora as compared with that of the control group,"femora [5]; 50-weeks old rats, oral 14 days",1.08 times
same,Amount of calcium in the diaphysis as compared with that of the control group,femora [6]; diaphysis,1.07 times
same,Amount of calcium in femora in the metaphysis as compared with that of the control group,femora [6]; metaphysis,1.08 times
same,"Amount of bone calcium, Diaphysis","femora [6]; oral 14 days, diaphysis",229.2 ± 3.4 mg/g dry weight
same,"Amount of bone calcium, Metaphysis","femora [6]; oral 14 days, metaphysis",202.1 ± 3.8 mg/g dry weight
same,Activity of femoral alkaline phosphatase in the diaphysis as compared with that of the control group,[7]; diaphysis,1.12 times
same,Activity of femoral alkaline phosphatase in the metaphysis as compared with that of the control group,[7]; metaphysis,1.12 times
same,"The activity of alkaline phosphatase, Diaphysis","[7]; oral 14 days, diaphysis",0.653 ± 0.019 μmol/min/mg protein
same,"The activity of alkaline phosphatase, Metaphysis","[7]; oral 14 days, metaphysis",0.744 ± 0.020 μmol/min/mg protein
same,Amount of DNA in the diaphysis as compared with that of the control group,femora [8]; diaphysis,1.14 times
same,Amount of DNA in the metaphysis as compared with that of the control group,"femora [8]; metaphysis, printed under [Amount of DNA in Femora]",1.05 times
same,"Amount of DNA, Diaphysis","femora [8]; oral 14 days, diaphysis",1.391 ± 0.043 mg/g wet weight of bone
same,"Amount of DNA, Metaphysis","femora [8]; oral 14 days, metaphysis",2.836 ± 0.041 mg/g wet weight of bone
same,"Effect of inhibiting the function of osteoclasts, potency relative to daidzein",osteoclasts [9],10 times
same,Bone resorption by osteoclasts,osteoclasts [10],directly inhibits the bone resorption by osteoclasts
same,Amount of DNA (index of increase in bone mineral content and cell growth by osteoblasts),osteoblasts,causes an increase in the amount of DNA
